Experimental data: the CheMixHub drug solubility set

Experiment: xn = mol fraction of the nth substance listed, in the solute-free solvent

CC1CCC2C(C)C(OC(=O)CCC(=O)O)OC3OC4(C)CCC1C32OO4 (stereo unspecified) + CO + O
solubility (g/100 g solution)
Conditions | 278.15 K | 283.15 K | 288.15 K | 293.15 K | 298.15 K | 303.15 K | 308.15 K | 313.15 K | 318.15 K
x2 = 0.05887 | 0.112 | 0.144 | 0.181 | 0.228 | 0.276 | 0.346 | 0.424 | 0.514 | 0.625
x2 = 0.1235 | 0.366 | 0.464 | 0.566 | 0.693 | 0.82 | 0.997 | 1.19 | 1.41 | 1.67
x2 = 0.1941 | 0.818 | 0.996 | 1.2 | 1.44 | 1.67 | 1.99 | 2.35 | 2.73 | 3.17
x2 = 0.2725 | 1.42 | 1.69 | 2 | 2.36 | 2.71 | 3.17 | 3.68 | 4.22 | 4.83
x2 = 0.36 | 2.09 | 2.46 | 2.87 | 3.34 | 3.8 | 4.37 | 5.01 | 5.65 | 6.39
x2 = 0.4579 | 2.79 | 3.23 | 3.73 | 4.29 | 4.84 | 5.49 | 6.23 | 6.99 | 7.79
x2 = 0.5666 | 3.54 | 4 | 4.58 | 5.22 | 5.83 | 6.54 | 7.36 | 8.18 | 9.06
x2 = 0.6924 | 4.36 | 4.87 | 5.46 | 6.22 | 6.9 | 7.65 | 8.52 | 9.37 | 10.3
x2 = 0.8362 | 5.15 | 5.63 | 6.33 | 7.1 | 7.82 | 8.58 | 9.48 | 10.4 | 11.2
